What was measured:
wild oat [1] = assay: Test Example 5: herbicidal effect by foliage application, plastic box (Table 20, symbol I); assay type: in vivo, wild oat (Avena fatua); details: evaluated three weeks after application
How it was run: (§1)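 Sow seeds spot-wise in sterilized diluvial soil; cover with ~1.5 cm soil. Grow 14 days in greenhouse, 25° C. to 30° C. Spray foliage with emulsion diluted to predetermined amount. Rate effect after 3 weeks.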

persian speedwell [2] = assay: Test Example 4: herbicidal effect by soil treatment (Table 19, symbol R); assay type: in vivo, Persian speedwell (Veronica persica); details: amount of applied herbicide 320 g/ha
How it was run: (§2)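 Soil-surface application: an emulsion agent diluted with water to the predetermined dose is sprayed uniformly over seeds lying under roughly 1.5 cm of sterilized diluvial soil. Boxes stay in a greenhouse at 25° C. to 30° C. Three weeks later, each species is graded on previously defined criteria.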

windgrass [3] = assay: Test Example 5: herbicidal effect by foliage application, plastic box (Table 20, symbol L); assay type: in vivo, windgrass (Apera spica-venti); details: evaluated three weeks after application
How it was run: as §1

late watergrass = assay: Test Example 1: herbicidal activity, application before weed generation under submerged conditions (Table 16, symbol A); assay type: in vivo, late watergrass (Echinochloa oryzicola)
How it was run: (§3)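 Submerged Wagner pots (alluvial soil, 4 cm water) sown with weed seeds and planted with 2.5-leaf rice seedlings; emulsifiable concentrate diluted in water applied to water surface on sowing day. Held in greenhouse at 25-30 °C; injury scored 0-5 by herbicidal rate after three weeks.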

oval-leafed pondweed = assay: Test Example 1: herbicidal activity, application before weed generation under submerged conditions (Table 16, symbol C); assay type: in vivo, oval-leafed pondweed (Monochoria vaginalis)
How it was run: as §3

Japanese bulrush = assay: Test Example 1: herbicidal activity, application before weed generation under submerged conditions (Table 16, symbol B); assay type: in vivo, Japanese bulrush (Schoenoplectus juncoides)
How it was run: as §3

barnyard grass [4] = assay: Test Example 3: herbicidal effect by foliage application, Wagner pot (Table 18, symbol H); assay type: in vivo, barnyard grass (Echinochloa crus-galli)
How it was run: (§4)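 Plants were sown in alluvial soil held under 0.1–0.5 cm standing water and grown 14 days in a greenhouse at 25–30 °C. An emulsifiable formulation, water-diluted to the set dose, was then sprayed onto the foliage, and effects were scored three weeks later using previously defined criteria.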

lambsquarters [5] = assay: Test Example 4: herbicidal effect by soil treatment (Table 19, symbol O); assay type: in vivo, lambsquarters (Chenopodium album); details: amount of applied herbicide 320 g/ha
How it was run: as §2

green foxtail [6] = assay: Test Example 5: herbicidal effect by foliage application, plastic box (Table 20, symbol G); assay type: in vivo, green foxtail (Setaria viridis); details: evaluated three weeks after application
How it was run: as §1

blackgrass [7] = assay: Test Example 5: herbicidal effect by foliage application, plastic box (Table 20, symbol J); assay type: in vivo, blackgrass (Alopecurus myosuroides); details: evaluated three weeks after application
How it was run: as §1

rice flat sedge = assay: Test Example 3: herbicidal effect by foliage application, Wagner pot (Table 18, symbol E); assay type: in vivo, rice flat sedge (Cyperus iria)
How it was run: as §4

chickweed [8] = assay: Test Example 5: herbicidal effect by foliage application, plastic box (Table 20, symbol P); assay type: in vivo, common chickweed (Stellaria media); details: evaluated three weeks after application
How it was run: as §1

green foxtail [9] = assay: Test Example 4: herbicidal effect by soil treatment (Table 19, symbol G); assay type: in vivo, green foxtail (Setaria viridis); details: amount of applied herbicide 320 g/ha
How it was run: as §2

barnyard grass [10] = assay: Test Example 5: herbicidal effect by foliage application, plastic box (Table 20, symbol H); assay type: in vivo, barnyard grass (Echinochloa crus-galli); details: evaluated three weeks after application
How it was run: as §1

velvetleaf [11] = assay: Test Example 5: herbicidal effect by foliage application, plastic box (Table 20, symbol M); assay type: in vivo, velvetleaf (Abutilon theophrasti); details: evaluated three weeks after application
How it was run: as §1

redroot pigweed [12] = assay: Test Example 5: herbicidal effect by foliage application, plastic box (Table 20, symbol N); assay type: in vivo, redroot pigweed (Amaranthus retroflexus); details: evaluated three weeks after application
How it was run: as §1

wild oat [13] = assay: Test Example 4: herbicidal effect by soil treatment (Table 19, symbol I); assay type: in vivo, wild oat (Avena fatua); details: amount of applied herbicide 320 g/ha
How it was run: as §2

blackgrass [14] = assay: Test Example 4: herbicidal effect by soil treatment (Table 19, symbol J); assay type: in vivo, blackgrass (Alopecurus myosuroides); details: amount of applied herbicide 320 g/ha
How it was run: as §2

chickweed [15] = assay: Test Example 4: herbicidal effect by soil treatment (Table 19, symbol P); assay type: in vivo, common chickweed (Stellaria media); details: amount of applied herbicide 320 g/ha
How it was run: as §2

Italian ryegrass [16] = assay: Test Example 4: herbicidal effect by soil treatment (Table 19, symbol K); assay type: in vivo, Italian ryegrass (Lolium multiflorum); details: amount of applied herbicide 320 g/ha
How it was run: as §2

Chinese sprangletop = assay: Test Example 3: herbicidal effect by foliage application, Wagner pot (Table 18, symbol D); assay type: in vivo, chinese sprangletop (Leptochloa chinensis)
How it was run: as §4

southern crabgrass [17] = assay: Test Example 5: herbicidal effect by foliage application, plastic box (Table 20, symbol F); assay type: in vivo, southern crabgrass (Digitaria ciliaris); details: evaluated three weeks after application
How it was run: as §1

southern crabgrass [18] = assay: Test Example 4: herbicidal effect by soil treatment (Table 19, symbol F); assay type: in vivo, southern crabgrass (Digitaria ciliaris); details: amount of applied herbicide 320 g/ha
How it was run: as §2

windgrass [19] = assay: Test Example 4: herbicidal effect by soil treatment (Table 19, symbol L); assay type: in vivo, windgrass (Apera spica-venti); details: amount of applied herbicide 320 g/ha
How it was run: as §2

Italian ryegrass [20] = assay: Test Example 5: herbicidal effect by foliage application, plastic box (Table 20, symbol K); assay type: in vivo, Italian ryegrass (Lolium multiflorum); details: evaluated three weeks after application
How it was run: as §1

persian speedwell [21] = assay: Test Example 5: herbicidal effect by foliage application, plastic box (Table 20, symbol R); assay type: in vivo, Persian speedwell (Veronica persica); details: evaluated three weeks after application
How it was run: as §1

barnyard grass [22] = assay: Test Example 4: herbicidal effect by soil treatment (Table 19, symbol H); assay type: in vivo, barnyard grass (Echinochloa crus-galli); details: amount of applied herbicide 320 g/ha
How it was run: as §2

lambsquarters [23] = assay: Test Example 5: herbicidal effect by foliage application, plastic box (Table 20, symbol O); assay type: in vivo, lambsquarters (Chenopodium album); details: evaluated three weeks after application
How it was run: as §1

redroot pigweed [24] = assay: Test Example 4: herbicidal effect by soil treatment (Table 19, symbol N); assay type: in vivo, redroot pigweed (Amaranthus retroflexus); details: amount of applied herbicide 320 g/ha
How it was run: as §2

velvetleaf [25] = assay: Test Example 4: herbicidal effect by soil treatment (Table 19, symbol M); assay type: in vivo, velvetleaf (Abutilon theophrasti); details: amount of applied herbicide 320 g/ha
How it was run: as §2

[26] = foliage application, AAH 320 g/ha
[27] = amount of applied herbicide 320 g/ha
[28] = 320 g/ha, foliage application after 14-day growth

Compound: CCSCc1ccc(-c2sc3ccc(F)cc3c2-c2c(O)c(C)nn(C)c2=O)cc1 [2-319]
- I: wild oat, herbicidal effect (criteria 0-5) (wild oat [1]; [26]): 4 (Herbicidal rate of 70% or more and less than 90%)
- herbicidal effect on R: persian speedwell (persian speedwell [2]): 4 (Herbicidal rate of 70% or more and less than 90%)
- L: windgrass, herbicidal effect (criteria 0-5) (windgrass [3]; [26]): 4 (Herbicidal rate of 70% or more and less than 90%)
- Herbicidal effect on A: late watergrass (grade 0-5) (late watergrass; 320 g/ha applied herbicide): 4 (Herbicidal rate of 70% or more and less than 90%)
- Herbicidal effect on C: oval-leafed pondweed (grade 0-5) (oval-leafed pondweed; 320 g/ha applied herbicide): 3 (Herbicidal rate of 40% or more and less than 70%)
- Herbicidal effect on B: Japanese bulrush (grade 0-5) (Japanese bulrush; 320 g/ha applied herbicide): 2 (Herbicidal rate of 20% or more and less than 40%)
- herbicidal effect on H: barnyard grass (barnyard grass [4]; [27]): 5 (Herbicidal rate of 90% or more (almost completely withered))
- herbicidal effect on O: lambsquarters (lambsquarters [5]): 3 (Herbicidal rate of 40% or more and less than 70%)
- G: green foxtail, herbicidal effect (criteria 0-5) (green foxtail [6]; [26]): 5 (Herbicidal rate of 90% or more (almost completely withered))
- J: blackgrass, herbicidal effect (criteria 0-5) (blackgrass [7]; [26]): 4 (Herbicidal rate of 70% or more and less than 90%)
- herbicidal effect on E: rice flat sedge (rice flat sedge; [27]): 5 (Herbicidal rate of 90% or more (almost completely withered))
- P: chickweed, herbicidal effect (criteria 0-5) (chickweed [8]; [26]): 5 (Herbicidal rate of 90% or more (almost completely withered))
- herbicidal effect on G: green foxtail (green foxtail [9]): 4 (Herbicidal rate of 70% or more and less than 90%)
- H: barnyard grass, herbicidal effect (criteria 0-5) (barnyard grass [10]; [26]): 5 (Herbicidal rate of 90% or more (almost completely withered))
- M: velvetleaf, herbicidal effect (criteria 0-5) (velvetleaf [11]; [26]): 5 (Herbicidal rate of 90% or more (almost completely withered))
- N: redroot pigweed, herbicidal effect (criteria 0-5) (redroot pigweed [12]; [26]): 5 (Herbicidal rate of 90% or more (almost completely withered))
- herbicidal effect on I: wild oat (wild oat [13]): 0 (Herbicidal rate of 5% or less (almost no effect))
- herbicidal effect on J: blackgrass (blackgrass [14]): 0 (Herbicidal rate of 5% or less (almost no effect))
- herbicidal effect on P: chickweed (chickweed [15]): 0 (Herbicidal rate of 5% or less (almost no effect))
- herbicidal effect on K: Italian ryegrass (Italian ryegrass [16]): 4 (Herbicidal rate of 70% or more and less than 90%)
- herbicidal effect on D: Chinese sprangletop (Chinese sprangletop; [27]): 4 (Herbicidal rate of 70% or more and less than 90%)
- F: southern crabgrass, herbicidal effect (criteria 0-5) (southern crabgrass [17]; [26]): 5 (Herbicidal rate of 90% or more (almost completely withered))
- herbicidal effect on F: southern crabgrass (southern crabgrass [18]): 4 (Herbicidal rate of 70% or more and less than 90%)
- herbicidal effect on L: windgrass (windgrass [19]): 1 (Herbicidal rate of 5% or more and less than 20%)
- K: Italian ryegrass, herbicidal effect (criteria 0-5) (Italian ryegrass [20]; [26]): 4 (Herbicidal rate of 70% or more and less than 90%)
- R: persian speedwell, herbicidal effect (criteria 0-5) (persian speedwell [21]; [26]): 5 (Herbicidal rate of 90% or more (almost completely withered))
- herbicidal effect on H: barnyard grass (barnyard grass [22]): 3 (Herbicidal rate of 40% or more and less than 70%)
- O: lambsquarters, herbicidal effect (criteria 0-5) (lambsquarters [23]; [26]): 5 (Herbicidal rate of 90% or more (almost completely withered))
- herbicidal effect on N: redroot pigweed (redroot pigweed [24]): 4 (Herbicidal rate of 70% or more and less than 90%)
- herbicidal effect on M: velvetleaf (velvetleaf [25]): 3 (Herbicidal rate of 40% or more and less than 70%)

Compound: CCOc1cc(F)ccc1-c1sc2c(Cl)cccc2c1-c1c(O)c(C)nn(C)c1=O [4-035]
- herbicidal effect on I: wild oat (evaluation grade 0-5) (wild oat [1]; [28]): 0 (Herbicidal rate of 5% or less (almost no effect))
- Herbicidal effect by soil treatment, R: persian speedwell (persian speedwell [2]): 1 (Herbicidal rate of 5% or more and less than 20%)
- herbicidal effect on L: windgrass (evaluation grade 0-5) (windgrass [3]; [28]): 5 (Herbicidal rate of 90% or more (almost completely withered))
- Herbicidal effect, A: late watergrass (late watergrass; [27]): 2 (Herbicidal rate of 20% or more and less than 40%)
- Herbicidal effect, C: oval-leafed pondweed (oval-leafed pondweed; [27]): 0 (Herbicidal rate of 5% or less (almost no effect))
- Herbicidal effect, B: Japanese bulrush (Japanese bulrush; [27]): 0 (Herbicidal rate of 5% or less (almost no effect))
- herbicidal effect on barnyard grass (H) (barnyard grass [4]; 320 g/ha): 5 (Herbicidal rate of 90% or more (almost completely withered))
- Herbicidal effect by soil treatment, O: lambsquarters (lambsquarters [5]): 0 (Herbicidal rate of 5% or less (almost no effect))
- herbicidal effect on G: green foxtail (evaluation grade 0-5) (green foxtail [6]; [28]): 5 (Herbicidal rate of 90% or more (almost completely withered))
- herbicidal effect on J: blackgrass (evaluation grade 0-5) (blackgrass [7]; [28]): 5 (Herbicidal rate of 90% or more (almost completely withered))
- herbicidal effect on rice flat sedge (E) (rice flat sedge; 320 g/ha): 5 (Herbicidal rate of 90% or more (almost completely withered))
- herbicidal effect on P: chickweed (evaluation grade 0-5) (chickweed [8]; [28]): 4 (Herbicidal rate of 70% or more and less than 90%)
- Herbicidal effect by soil treatment, G: green foxtail (green foxtail [9]): 3 (Herbicidal rate of 40% or more and less than 70%)
- herbicidal effect on H: barnyard grass (evaluation grade 0-5) (barnyard grass [10]; [28]): 5 (Herbicidal rate of 90% or more (almost completely withered))
- herbicidal effect on M: velvetleaf (evaluation grade 0-5) (velvetleaf [11]; [28]): 4 (Herbicidal rate of 70% or more and less than 90%)
- herbicidal effect on N: redroot pigweed (evaluation grade 0-5) (redroot pigweed [12]; [28]): 5 (Herbicidal rate of 90% or more (almost completely withered))
- Herbicidal effect by soil treatment, I: wild oat (wild oat [13]): 0 (Herbicidal rate of 5% or less (almost no effect))
- Herbicidal effect by soil treatment, J: blackgrass (blackgrass [14]): 0 (Herbicidal rate of 5% or less (almost no effect))
- Herbicidal effect by soil treatment, P: chickweed (chickweed [15]): 3 (Herbicidal rate of 40% or more and less than 70%)
- Herbicidal effect by soil treatment, K: Italian ryegrass (Italian ryegrass [16]): 0 (Herbicidal rate of 5% or less (almost no effect))
- herbicidal effect on Chinese sprangletop (D) (Chinese sprangletop; 320 g/ha): 3 (Herbicidal rate of 40% or more and less than 70%)
- herbicidal effect on F: southern crabgrass (evaluation grade 0-5) (southern crabgrass [17]; [28]): 5 (Herbicidal rate of 90% or more (almost completely withered))
- Herbicidal effect by soil treatment, F: southern crabgrass (southern crabgrass [18]): 4 (Herbicidal rate of 70% or more and less than 90%)
- Herbicidal effect by soil treatment, L: windgrass (windgrass [19]): 0 (Herbicidal rate of 5% or less (almost no effect))
- herbicidal effect on K: Italian ryegrass (evaluation grade 0-5) (Italian ryegrass [20]; [28]): 4 (Herbicidal rate of 70% or more and less than 90%)
- herbicidal effect on R: persian speedwell (evaluation grade 0-5) (persian speedwell [21]; [28]): 5 (Herbicidal rate of 90% or more (almost completely withered))
- Herbicidal effect by soil treatment, H: barnyard grass (barnyard grass [22]): 5 (Herbicidal rate of 90% or more (almost completely withered))
- herbicidal effect on O: lambsquarters (evaluation grade 0-5) (lambsquarters [23]; [28]): 4 (Herbicidal rate of 70% or more and less than 90%)
- Herbicidal effect by soil treatment, N: redroot pigweed (redroot pigweed [24]): 3 (Herbicidal rate of 40% or more and less than 70%)
- Herbicidal effect by soil treatment, M: velvetleaf (velvetleaf [25]): 2 (Herbicidal rate of 20% or more and less than 40%)
